The source made the active and inactive calls. The rule behind the calls is not given here.
Columns and labels:
[1] = Cytotoxicity against human HCC827 cells assessed as growth inhibition after 72 hrs by MTT assay; conditions: HCC827, 72 h
HepG2 = experiment: Cytotoxicity against human HepG2 cells assessed as growth inhibition after 72 hrs by MTT assay; conditions: HepG2, 72 h
[2] = Cytotoxicity against human MIAPaCa2 cells assessed as growth inhibition after 72 hrs by MTT assay; conditions: MIA PaCa-2, 72 h
HT-29 = experiment: Cytotoxicity against human HT-29 cells assessed as growth inhibition after 72 hrs by MTT assay; conditions: HT-29, 72 h
A549 = experiment: Cytotoxicity against human A549 cells assessed as growth inhibition after 72 hrs by MTT assay; conditions: A549, 72 h
HeLa = experiment: Cytotoxicity against human HeLa cells assessed as growth inhibition after 72 hrs by MTT assay
AGS = experiment: Cytotoxicity against human AGS cells assessed as growth inhibition after 72 hrs by MTT assay
[3] = Solubility of compound in water; format: physicochemical; conditions: buffer
HCC827 = experiment: Antimigratory activity against human HCC827 cells at 2.5 to 10 uM after 24 hrs by crystal violet staining based transwell chamber assay; format: functional, cell-based
[4] = target: Hepatocyte growth factor receptor (Homo sapiens, UniProt P08581); experiment: Inhibition of c-MET (unknown origin) by caliper mobility shift assay
Hepatocyte growth factor receptor, sequence (P08581 whole entry): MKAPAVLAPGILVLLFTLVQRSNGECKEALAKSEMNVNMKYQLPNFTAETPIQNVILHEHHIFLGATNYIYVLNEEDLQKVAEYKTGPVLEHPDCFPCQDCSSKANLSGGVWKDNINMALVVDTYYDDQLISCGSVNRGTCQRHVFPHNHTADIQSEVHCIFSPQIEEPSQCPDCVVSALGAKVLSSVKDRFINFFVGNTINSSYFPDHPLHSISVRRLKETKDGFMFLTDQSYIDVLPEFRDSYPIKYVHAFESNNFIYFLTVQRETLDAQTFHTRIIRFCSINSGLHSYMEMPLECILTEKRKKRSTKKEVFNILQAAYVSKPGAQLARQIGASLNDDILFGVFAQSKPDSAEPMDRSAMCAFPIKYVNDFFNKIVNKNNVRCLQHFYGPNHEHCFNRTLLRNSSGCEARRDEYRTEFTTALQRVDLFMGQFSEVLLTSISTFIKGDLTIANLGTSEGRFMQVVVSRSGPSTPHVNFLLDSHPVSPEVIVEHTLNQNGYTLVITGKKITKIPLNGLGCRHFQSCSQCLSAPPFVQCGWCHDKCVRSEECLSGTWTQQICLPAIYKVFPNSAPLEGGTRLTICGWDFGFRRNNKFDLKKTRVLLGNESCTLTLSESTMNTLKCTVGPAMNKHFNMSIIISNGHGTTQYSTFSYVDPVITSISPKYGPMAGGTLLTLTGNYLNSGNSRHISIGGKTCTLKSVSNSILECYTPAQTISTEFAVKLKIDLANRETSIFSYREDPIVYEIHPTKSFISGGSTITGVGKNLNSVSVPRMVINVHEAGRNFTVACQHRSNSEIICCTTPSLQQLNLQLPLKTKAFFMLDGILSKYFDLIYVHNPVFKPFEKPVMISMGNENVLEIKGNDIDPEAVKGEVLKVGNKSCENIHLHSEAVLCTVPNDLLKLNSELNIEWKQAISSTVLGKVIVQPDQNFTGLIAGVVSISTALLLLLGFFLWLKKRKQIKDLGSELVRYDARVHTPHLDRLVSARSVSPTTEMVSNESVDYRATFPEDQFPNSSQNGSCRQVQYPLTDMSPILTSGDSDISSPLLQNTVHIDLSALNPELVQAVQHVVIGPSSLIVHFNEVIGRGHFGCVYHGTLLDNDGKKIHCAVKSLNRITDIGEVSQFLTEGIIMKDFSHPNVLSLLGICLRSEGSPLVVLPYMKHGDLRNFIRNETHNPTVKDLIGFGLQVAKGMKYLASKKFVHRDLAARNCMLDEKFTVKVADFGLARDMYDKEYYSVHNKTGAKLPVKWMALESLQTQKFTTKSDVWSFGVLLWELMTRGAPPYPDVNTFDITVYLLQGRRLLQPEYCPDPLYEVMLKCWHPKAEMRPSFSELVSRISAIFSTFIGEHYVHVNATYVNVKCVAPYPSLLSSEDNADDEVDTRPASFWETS

Row | solubility [3] | IC50 [4] [µM] | Compound | IC50 [1] [µM] | IC50 (HepG2) [µM] | IC50 [2] [µM] | IC50 (HT-29) [µM] | IC50 (A549) [µM] | IC50 (HeLa) [µM] | IC50 (AGS) [µM] | Activity (HCC827)
1 | – | – | C[C@@H](Oc1cc(-c2cnn(C3CCNCC3)c2)cnc1N)c1c(Cl)ccc(F)c1Cl [CRIZOTINIB] | 7.25 | 3.7 | 7.16 | – | – | – | – | –
2 | – | – | CC(C)=CCC/C(C)=C/C[C@@H]1C[C@]2(CC=C(C)C)C(=O)[C@@](CC=C(C)C)(C(=O)C(OC(=O)c3ccc(O)c(O)c3)=C2O)[C@@]1(C)CCC=C(C)C | > 20 | > 20 | > 20 | 16.3 | 13.1 | 15.1 | 10.2 | –
3 | soluble | – | COC(=O)COc1cc(C(=O)C2=C(O)[C@]3(CC=C(C)C)C[C@@H](C/C=C(\C)CCC=C(C)C)[C@](C)(CCC=C(C)C)[C@](CC=C(C)C)(C2=O)C3=O)ccc1OCC(=O)O | > 20 | > 20 | > 20 | > 20 | > 20 | > 20 | > 20 | –
4 | – | – | CC(C)=CCC/C(C)=C/C[C@@H]1C[C@@]2(CC=C(C)C)C(=O)C3=C(OC4C=C(O)C(=O)C=C4C3=O)[C@](CC=C(C)C)(C2=O)[C@@]1(C)CCC=C(C)C (some centres not stated) | 4.56 | 3.47 | 2.78 | 9.22 | 9.84 | 6.82 | 7.72 | Active
5 | soluble | – | COC(=O)COc1ccc(C(=O)C2=C(O)[C@]3(CC=C(C)C)C[C@@H](C/C=C(\C)CCC=C(C)C)[C@](C)(CCC=C(C)C)[C@](CC=C(C)C)(C2=O)C3=O)cc1OCC(=O)O | > 20 | > 20 | > 20 | > 20 | > 20 | > 20 | > 20 | –
6 | soluble | – | CC(C)=CCC/C(C)=C/C[C@@H]1C[C@]2(CC=C(C)C)C(=O)[C@@](CC=C(C)C)(C(=O)C(C(=O)c3ccc(OCC(=O)O)c(OCC(=O)O)c3)=C2O)[C@@]1(C)CCC=C(C)C | > 20 | > 20 | > 20 | > 20 | > 20 | > 20 | > 20 | –
7 | – | 7.77 | CC(C)=CCC/C(C)=C/C[C@@H]1C[C@]2(CC=C(C)C)C(=O)[C@@](CC=C(C)C)(C(=O)C(C(=O)c3ccc(O)c(O)c3)=C2O)[C@@]1(C)CCC=C(C)C [OBLONGIFOLIN C] | 9.2 | 13 | 4.46 | 6.74 | 4.29 | 5.83 | 4.58 | –
8 | – | – | CC(C)=CCC/C(C)=C/C[C@@H]1C[C@]2(CC=C(C)C)C(=O)[C@@](CC=C(C)C)(C(=O)C3=C2OC2C=C(O)C(=O)C=C2C3=O)[C@@]1(C)CCC=C(C)C (some centres not stated) | > 20 | 14.3 | 9.88 | 16.9 | 13.1 | 10.3 | 7.84 | Active
9 | – | – | CC(=O)Oc1cc(C(=O)C2=C(O)[C@]3(CC=C(C)C)C[C@@H](C/C=C(\C)CCC=C(C)C)[C@](C)(CCC=C(C)C)[C@](CC=C(C)C)(C2=O)C3=O)ccc1O | > 20 | > 20 | 15.4 | 10.2 | 7.66 | 8.97 | 8.09 | –
10 | – | – | CC(C)=CCC/C(C)=C/C[C@@H]1C[C@]2(CC=C(C)C)C(=O)[C@@](CC=C(C)C)(C(=O)C(C(=O)c3ccc(O)c(OC(=O)CCCC[C@@H]4SCC5NC(=O)NC54)c3)=C2O)[C@@]1(C)CCC=C(C)C (some centres not stated) | 12.1 | 14.6 | 11.7 | 18.2 | 11.3 | 12.7 | 12.2 | –
11 | – | – | CC(=O)Oc1ccc(C(=O)C2=C(O)[C@]3(CC=C(C)C)C[C@@H](C/C=C(\C)CCC=C(C)C)[C@](C)(CCC=C(C)C)[C@](CC=C(C)C)(C2=O)C3=O)cc1OC(C)=O | > 20 | > 20 | > 20 | 12.2 | 16.6 | 13.3 | 15.7 | –
12 | – | > 20 | CC(C)=CCC/C(C)=C/C[C@@H]1C[C@]2(CC=C(C)C)C(=O)[C@@](CC=C(C)C)(C(=O)C(Cc3ccc(O)c(O)c3)=C2O)[C@@]1(C)CCC=C(C)C | > 20 | > 20 | > 20 | > 20 | > 20 | > 20 | > 20 | –

From ChEMBL document CHEMBL3826938, “Synthesis and biological evaluation of Oblongifolin C derivatives as c-Met inhibitors” (Bioorg Med Chem, 2016)
